Activity data for one compound are collected here from ChEMBL document CHEMBL2073796, “Multidrug resistance protein 2 (MRP2) transports HIV protease inhibitors, and transport can be enhanced by other drugs” (AIDS, 2002).

This data set addresses ATP-binding cassette sub-family C member 2 (Homo sapiens, UniProt Q92887). The data set is described as follows: TP_TRANSPORTER: transepithelial transport (basal to apical) in MRP2-expressing MDCKII cells. The following applies: dog, mdck-ii. Type of data set: functional, cell-based.

ATP-binding cassette sub-family C member 2, sequence (Q92887 whole entry): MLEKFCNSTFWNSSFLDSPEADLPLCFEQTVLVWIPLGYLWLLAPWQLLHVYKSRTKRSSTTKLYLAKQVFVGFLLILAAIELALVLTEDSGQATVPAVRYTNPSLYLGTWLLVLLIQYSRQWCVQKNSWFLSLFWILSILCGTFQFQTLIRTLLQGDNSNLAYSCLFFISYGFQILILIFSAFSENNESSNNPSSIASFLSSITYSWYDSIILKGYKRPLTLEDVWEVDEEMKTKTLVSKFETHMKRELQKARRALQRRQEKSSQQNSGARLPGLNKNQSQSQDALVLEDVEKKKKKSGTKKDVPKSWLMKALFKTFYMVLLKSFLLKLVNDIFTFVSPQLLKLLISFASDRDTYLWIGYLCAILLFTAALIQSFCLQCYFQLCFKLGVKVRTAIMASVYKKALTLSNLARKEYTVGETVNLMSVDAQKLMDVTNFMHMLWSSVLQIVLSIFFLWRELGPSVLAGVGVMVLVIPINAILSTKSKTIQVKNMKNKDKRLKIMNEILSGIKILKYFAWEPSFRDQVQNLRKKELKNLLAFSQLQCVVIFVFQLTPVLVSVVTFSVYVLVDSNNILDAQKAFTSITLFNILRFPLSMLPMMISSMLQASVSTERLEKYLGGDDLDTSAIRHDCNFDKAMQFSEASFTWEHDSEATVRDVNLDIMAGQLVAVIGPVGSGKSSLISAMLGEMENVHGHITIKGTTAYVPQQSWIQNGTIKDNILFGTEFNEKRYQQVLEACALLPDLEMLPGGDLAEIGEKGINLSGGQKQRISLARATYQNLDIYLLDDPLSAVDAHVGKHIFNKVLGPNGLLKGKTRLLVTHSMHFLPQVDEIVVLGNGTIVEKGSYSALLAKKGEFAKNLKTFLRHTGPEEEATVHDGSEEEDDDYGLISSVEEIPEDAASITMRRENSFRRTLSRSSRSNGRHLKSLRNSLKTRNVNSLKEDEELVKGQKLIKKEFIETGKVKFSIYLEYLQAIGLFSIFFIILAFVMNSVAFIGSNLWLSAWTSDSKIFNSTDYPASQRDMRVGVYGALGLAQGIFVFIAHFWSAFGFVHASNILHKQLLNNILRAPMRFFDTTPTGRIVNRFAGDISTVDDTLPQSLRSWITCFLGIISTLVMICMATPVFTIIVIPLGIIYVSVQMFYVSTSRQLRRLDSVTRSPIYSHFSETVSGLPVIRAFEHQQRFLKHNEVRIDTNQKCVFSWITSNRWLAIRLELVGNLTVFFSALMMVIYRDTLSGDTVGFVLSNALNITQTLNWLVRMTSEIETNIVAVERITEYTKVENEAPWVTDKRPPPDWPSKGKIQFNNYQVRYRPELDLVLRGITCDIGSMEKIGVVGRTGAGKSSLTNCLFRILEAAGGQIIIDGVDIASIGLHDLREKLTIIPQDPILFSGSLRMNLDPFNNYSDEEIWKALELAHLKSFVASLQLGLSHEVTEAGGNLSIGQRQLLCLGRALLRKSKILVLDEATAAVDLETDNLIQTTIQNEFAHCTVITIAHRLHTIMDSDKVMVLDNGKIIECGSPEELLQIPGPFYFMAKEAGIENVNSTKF

Take `CC(C)(C)NC(=O)[C@@H]1CN(Cc2cccnc2)CCN1C[C@@H](O)C[C@@H](Cc1ccccc1)C(=O)N[C@H]1c2ccccc2C[C@H]1O.O`: the Activity result is “substrate [+]”.
